In patent publication US4057644A, “Active derivatives of methylamine in therapeutic compositions and methods of use” (priority 1976, dated 1977):
Where two headings read alike, the source gives them in different places.

Experiments:
[1] = tested on: neuroleptic-induced catatonia (prochlorperazine); experiment: Suppression of neuroleptic-induced catatonia (curative treatment); format: in vivo, rat (male, OFA strain); settings: 5 mg/kg, versus amantadine 80 mg/kg
Description: Fifty-five minutes later, an oral dose in aqueous solution of the compound to be studied was administered to all the animals with the exception of the control group. The progress of the catatonia was noted following the same scale as that used in the tests described above.

[2] = tested on: isolated duodenum of the rat; experiment: MAGNUS test, inhibition of acetylcholine spasm in vitro (cholinolytic/spasmolytic)
Excerpt: This test consists in determining the dose of acetylcholine which, when added to the bath, provokes spasm of the isolated duodenum of the rat. The next step consists in determining the dose of the compound under study which, when added to the bath 30 seconds before the acetylcholine, reduces the spasm.

[3] = tested on: norepinephrine effects on arterial pressure and nictitating membrane; experiment: Influence on peripheral noradrenergic phenomena (arterial pressure, nictitating membrane); settings: cat; for Contractile reaction of the nictitating membrane with electric stimulation / Contractile reaction of the nictitating membrane without electric stimulation / Increase in arterial pressure after injection of norepinephrine: i.v.
Description: A cat, anaesthetized with pentobarbital, received a sufficient dose of norepinephrine to increase arterial pressure but not sufficient to cause contraction of the nictitating membrane. Arterial pressure was measured at the carotid immediately after administration of the dose of norepinephrine.

catalepsy = experiment: Inhibition of prochlorperazine-induced catalepsy (crossing of homolateral paws); format: in vivo; settings: Rattus norvegicus, po, 3 h, read-out: dose giving complete inhibition of the catalepsy
Excerpt: […]. These trails involved catalepsy as evidenced by the crossing of the animal's homolateral paws.

[4] = tested on: tremorine-induced cholinergic effects; experiment: Anti-tremorine test; format: in vivo, mice (male, OF1 strain); set-up: key to central cholinergic effects score (normal and provoked tremor): 0: no action; 1: slight action; 2: average action; 3: strong action; 4: very strong action
Description: When injected into mice, tremorine produces peripheral effects i.e. weeping, sweating, salivation and diarrhoea and central effects i.e. tremor and akinesia. Such effects are due to an increase in the amount of intracerebral acetylcholine and serotonine.
Male mice of the OF1 strain weighing about 22 g were divided into batches of 10. […] Thirty minutes later a dose of 10 mg/kg of tremorine was injected by intraperitoneal route and, at different times after this injection, note was taken of the cholinergic effects on each animal in accordance with the following scale: […]

[5] = J. Amer. Chem. Soc., 71, 3352 (1949); cited from earlier work
[6] = tested on: reserpine-induced catatonia; experiment: Suppression of reserpine-induced catatonia (curative treatment); format: in vivo, rat (male, OFA strain); settings: 2.5 and 5 mg/kg oral, versus amantadine 80 mg/kg
Description: Batches of 5 male rats of the OFA strain, weighing 150 to 200 g were given 5 mg/kg of reserpine by intraperitoneal route. One hour and 45 minutes later, namely when the animals were in state of catatonia, an aqueous dose of the compound to be studied was administered by oral route to all the animals with the exception of the control group.
The progress of the catatonia was then noted following the scale used in the tests described hereabove.
The maximum score was thus 5 per batch which means that all the animals of the batch were considered to be still in a state of catatonia.

[7] = J. Amer. Chem. Soc., 71, 3352 (1949); cited from earlier work; remark: listed apart in the source
[8] = tested on: reserpine-induced catatonia; experiment: Inhibition of reserpine-induced catatonia; format: in vivo, rat (male, OFA strain); settings: rat
Description: Ater sufficient doses of reserpine have been administered to the rat, a series of symptoms occur, more particularly ptosis, catatonia and a drop in central temperature. These symptoms are caused by the depletion of the intrangranular reserve pool of biogenetic amines at the synaptic terminals.
An oral dose of the compound to be studied in aqueous solution was administered to batches of 10 male rats of the OFA strain weighing about 150 to 200 g. Thirty minutes later a dose of 5 mg/kg of reserpine was given by intraperitoneal route. Three hours after the injection of reserpine, the animals were suspended by the four paws to a horizontally stretched wire fixed at 15 cm from the ground. The catatonic animals were those which maintained the position so given for at least 30 seconds. […] The maximum score was therefore 10 per batch. An identical trial was undertaken with control animals which received reserpine but none of the compounds being studied.

[9] = Anti-cholinergic (cholinolytic) activity
[10] = Spasmolytic activity in vivo; settings: at doses well below the toxic dose
[11] = tested on: neuroleptic-induced catatonia (prochlorperazine); experiment: Inhibition of neuroleptic-induced catatonia; format: in vivo, rat (male, OFA strain); settings: rat, oral; versus amantadine
Description: The blocking of dopaminergic receptors by neuroleptics in the extra-pyramidal system induces catatonia in the rat. Catatonia is differentiated from sedative properties by means of the test used hereabove for reserpine-induced catatonia. The same system of scoring was also employed in the present case.
An oral dose of the compound to be studied in aqueous solution was administered to batches of 10 male rats of the OFA strain weighing about 150 to 200 g.
Three hours after the injection of this latter compound, catatonia was measured. An identical trial was also carried out with control animals which received prochlorperazine but none of the compounds under study.

In the case of `CCCC(N)(CCC)CCC` [Compound 1], the “rapidity of action against neuroleptic-induced catatonia” value [1] is reported as “more rapidly”, the “spasmolytic / cholinolytic activity in vitro” value [2] is reported as “virtually non-existent” and the “spasmolytic / cholinolytic activity in vitro” value ([2]; listed as tri-n-propylmethylamine) is reported as “very weak, in fact practically non-existent”. The “potentiation of endogenous norepinephrine” value [3] was “does not potentiate”, the “potentiation of exogenous norepinephrine / peripheral adrenergic effects” value [3] was “does not potentiate” and the “Contractile reaction of the nictitating membrane with electric stimulation” value (“Contractile reaction … with electric stimulation” for short) ([3]; cumulative dose 0.1 mg/kg) was 15 mm. For the same compound, the “Contractile reaction of the nictitating membrane without electric stimulation” value ([3]; cumulative dose 0.1 mg/kg) was 0 mm, the “Increase in arterial pressure after injection of norepinephrine” value (shortened to “Increase in arterial pressure”) ([3]; cumulative dose 0.1 mg/kg) was 18 mm Hg and the “Contractile reaction … with electric stimulation” value ([3]; cumulative dose 1 mg/kg) was 16 mm. The “Contractile reaction of the nictitating membrane without electric stimulation” value ([3]; cumulative dose 1 mg/kg) was 0 mm, the “Increase in arterial pressure” value ([3]; cumulative dose 1 mg/kg) was 25 mm Hg and the “Contractile reaction … with electric stimulation” value ([3]; cumulative dose 3 mg/kg) was 17 mm. The “Contractile reaction of the nictitating membrane without electric stimulation” value ([3]; cumulative dose 3 mg/kg) was 0 mm, the “Increase in arterial pressure” value ([3]; cumulative dose 3 mg/kg) was 29 mm Hg and the “Contractile reaction … with electric stimulation” value ([3]; cumulative dose 5 mg/kg) was 16 mm. The “Contractile reaction of the nictitating membrane without electric stimulation” value ([3]; cumulative dose 5 mg/kg) was 0 mm, the “Increase in arterial pressure” value ([3]; cumulative dose 5 mg/kg) was 25 mm Hg and the “Contractile reaction … with electric stimulation” value ([3]; cumulative dose 10 mg/kg) was 12 mm. For the same compound, the “Contractile reaction of the nictitating membrane without electric stimulation” value ([3]; cumulative dose 10 mg/kg) was 0 mm, the “Increase in arterial pressure” value ([3]; cumulative dose 10 mg/kg) was 22 mm Hg and the “potentiation of exogenous norepinephrine / peripheral adrenergic effects” value ([3]; listed as preferred compound of the invention) was “does not potentiate the peripheral effects of norepinephrine”. For the same compound, the ED100 (catalepsy) was 5 mg/kg, the “central cholinergic effects score (normal and provoked tremor)” value ([4]; 5 mg/kg oral, 20, 30 and 40 minutes after tremorine, printed as identical results) was 4 and the antitremorine properties ([4]; mice, oral) was “devoid of antitremorine properties”. The “toxicity versus the corresponding trialkylethylamines” value [5] was “more toxic”, the “rapidity of suppression of reserpine-induced catatonia” value [6] was “more rapidly” and the “spasmolytic activity versus the corresponding trialkylethylamines” value [7] was “less spasmolytic”. The “degree of activity (pharmacological trials)” value ([8]; in vivo) was “marked degree of activity”, the “dose of equal activity compared with amantadine (reserpine-induced catatonia)” value ([8]; oral, versus amantadine) was “twenty times inferior” and the “anti-cholinergic (cholinolytic) activity” value [9] was “devoid of anti-cholinergic activity”. The “spasmolytic activity in vivo” value [10] was “non-existent” and the “activity compared with amantadine (neuroleptic-induced catatonia)” value [11] was “twenty times more active”.
